Experimental data taken from patent US9487477B2, “Crystalline phase of (3S,3S′) 4,4′-disulfanediylbis(3-aminobutane 1-sulfonic acid) with L-lysine” (Quantum Genomics, priority 2012, dated 2016).

Key:
Hygroscopicity = type: physicochemical
[1] = Differential scanning calorimetry (thermal stability); type: physicochemical; conditions: DSC from −20° C. up to 180° C., heating rate 5K/min
Experimental: FIG. 3: DSC pattern of ABSD.(L-lysine)2. Said experiment was performed from −20° C. up to 180° C., heating rate=5K/min.
The phase isolated, so called “ABSD L-lysinate”, was analyzed by DSC (FIG. 3). […] Said results further confirm that the crystalline form is anhydrous.

[2] = Karl Fischer titration (water content); type: physicochemical
From the text: A Karl Fischer titration is a classical titration method to determine the trace amounts of water in a sample. A Karl Fischer titration has confirmed the DSC analysis, by determining a water content of 0.06% inside the sample (i.e. very small amount of adsorbed water).

[3] = Solubility in water and other solvents; type: physicochemical
[4] = cited from earlier work
[5] = TGA-DSC analysis coupled to mass spectrometry (thermal behavior, loss of water); type: physicochemical; conditions: TGA-DSC from 30° C., heating rate 5K/Min
Experimental: A TGA-DSC analysis (coupled to mass spectrometry) was performed on this salt in order to observe its thermal behavior, and to determine its water content.
A TGA-DSC analysis (coupled to mass spectroscopy) was performed on this phase (FIG. 8).
A TGA-DSC analysis coupled to a Mass Spectroscopy (MS) was performed on this phase (FIG. 10).

With `NCCCCC(N)C(=O)O` (racemic) [DL-lysine, reference compound] the hygroscopicity (Hygroscopicity) was “high hygroscopicity up to deliquescence”.

With `NCCCC[C@H](N)C(=O)O.NCCCC[C@H](N)C(=O)O.N[C@@H](CCS(=O)(=O)O)CSSC[C@@H](N)CCS(=O)(=O)O` [ABSD L-lysinate] the “thermal stability: no thermal phenomenon up to” value [1] was “up to 180 °C”, the water content [2] was 0.06% and the “aqueous solubility compared to the ABSD trihydrate” value [3] was “higher”. The “aqueous solubility compared to the ABSD zwitterionic form” value ([3]; room temperature) was “higher” and the “hygroscopy compared to the ABSD zwitterionic form” value (Hygroscopicity) was “lower”.

For `N[C@H](CCS(=O)(=O)O)CSSC[C@H](N)CCS(=O)(=O)O` [ABSD zwitterion, (3S,3S′) 4,4′-disulfanediylbis(3-aminobutane 1-sulfonic acid)], the “time for the mixture of hydrated forms to evolve toward the trihydrate phase” value ([4]; stored at circa 20° C. and RH>50%, WO 2012/045849) is listed as “less than two days”.

In the case of `N[C@@H](CCS(=O)(=O)[O-])CSSC[C@@H](N)CCS(=O)(=O)O.[Na+]` [sodium hydrogen salt of ABSD], the “temperature of loss of water” value [5] is reported as “circa 35 °C”.

For `N[C@H](CCS(=O)(=O)O)CSSC[C@H](N)CCS(=O)(=O)O` [trihydrate phase], the “temperature at which dehydration toward the dihydrate form starts” value ([4]; as described in WO 2012/045849) is listed as “below 30 °C”.
